Laboratory results published in patent publication US7999069B2, “EphB receptor-binding peptides” (Sanford-Burnham Medical Research Institute, priority 2005, dated 2011).
No end group written: not given here.

Legend:
EphB receptors = assay: Peptide pull-down of endogenous EphB receptors from lysates; format: binding; conditions: peptide on streptavidin beads; mouse brain or cultured cell lysates
Method: The ability of the peptides to bind in a stable manner, which is important for both targeting and competitive inhibition, was tested in pull-down experiments. For peptide pull-down experiments, cells in 60 cm plates at 70% confluency or adult mouse brain tissue were solubilized in pull-down buffer (50 mM HEPES pH 7.5, 150 mM NaCl, 10% glycerol, 1% Triton-X100, 5 mM KCl and 1 mM EDTA). Three μg of biotinylated peptide were incubated for 45-90 min with 5 μl streptavidin agarose beads (Sigma), unbound peptide was washed away, and the beads were incubated with the cell lysates for 45-90 min. Proteins bound to the beads were separated by SDS-polyacrylamide gel electrophoresis and probed by immunoblotting with EphB1, EphB2, or EphB4 antibodies. The EphB1 antibody (Santa Cruz) was detected with a secondary anti-goat IgG peroxidase-conjugated antibody (BioRad Laboratories). The EphB2 and EphB4 antibodies were affinity-purified polyclonal antibodies to GST fusion proteins containing approximately 100 amino acids from the carboxy-terminal tails of the EphB2 or EphB4 receptors (Noren, N. K. et al. 2004 PNAS USA 101:5583-5588; Holash, J. A. & Pasquale, E. B. 1995 Devel Biol 172:683-693) and were detected with a secondary anti-rabbit IgG peroxidase-conjugated antibody (Amersham Biosciences). […]

Eph receptor Fc proteins = assay: Immobilized biotinylated peptides capturing Eph receptor Fc proteins on streptavidin plates; format: binding; conditions: A- and B-class Eph receptor Fc proteins
Method: To measure the specificity of peptide binding to Eph receptors, biotinylated peptides were immobilized on streptavidin-coated plates at 10 μM (Pierce Biotechnology, Rockford, Ill.) and incubated for 1 hr with different Eph ectodomain Fc fusion proteins at 2.5 μg/ml in binding buffer. Bound receptor was detected using an anti-Fc antibody coupled to alkaline phosphatase (Promega) with p-nitrophenylphosphate as substrate (Pierce). The background that was subtracted from the measurements was determined by omitting the Eph ectodomain.
Biotinylated peptides were immobilized on streptavidin-coated plates and used to capture Eph receptor Fc proteins. Bound receptor was detected using anti-Fc antibody coupled to alkaline phosphatase and was normalized to the value in the well with highest receptor binding.

EphB1 = molecular target: T1, EphB1 (Homo sapiens, UniProt P54762); assay: Inhibition of ephrin-B2 AP binding to immobilized EphB1 ectodomain
T1 construct: panned on the ectodomains of EphB1, EphB2, or EphB4 fused to human Fc
T1 sequence (P54762 18-540 limits assumed): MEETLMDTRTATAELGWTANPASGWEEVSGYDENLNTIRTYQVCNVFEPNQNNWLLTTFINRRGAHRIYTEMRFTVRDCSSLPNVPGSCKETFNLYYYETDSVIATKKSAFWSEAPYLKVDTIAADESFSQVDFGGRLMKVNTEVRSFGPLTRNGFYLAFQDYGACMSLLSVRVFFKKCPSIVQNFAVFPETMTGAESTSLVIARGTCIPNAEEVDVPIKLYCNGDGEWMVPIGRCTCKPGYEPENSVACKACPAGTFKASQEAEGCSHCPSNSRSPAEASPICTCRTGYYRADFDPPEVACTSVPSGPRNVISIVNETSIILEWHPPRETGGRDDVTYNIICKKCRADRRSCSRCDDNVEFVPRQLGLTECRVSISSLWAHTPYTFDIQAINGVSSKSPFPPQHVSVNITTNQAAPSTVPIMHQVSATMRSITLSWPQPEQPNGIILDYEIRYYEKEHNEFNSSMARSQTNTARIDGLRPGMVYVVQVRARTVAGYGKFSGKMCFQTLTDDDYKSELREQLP
Method: Peptides that bind to the same receptor region as the ephrins would be expected to inhibit Eph receptor-ephrin association, if they interact with sufficient affinity. A number of synthetic peptides were tested for their ability to inhibit binding of alkaline phosphatase-tagged ephrin-B2 (ephrin-B2-AP) to EphB receptors (FIG. 3). Most of the peptides were synthesized with a biotin tag and immobilized on streptavidin plates to verify their ability to capture the EphB ectodomains used for their isolation.
Ephrin-B2 AP binding to the indicated immobilized EphB receptor ectodomains was measured in the presence of the indicated peptides and detected by measuring alkaline phosphatase activity. […]. […] Wells coated with the different EphB ectodomains were incubated with ephrin-B2 AP and 50 μM of the indicated peptides. Ephrin-B2 AP binding in the presence of peptide was normalized to binding in the absence of peptide. All peptides were biotinylated except for FSPQ and EWYM. […] Therefore, IPWT was not used for further experiments. […]
The GP motif aligns with the GP motif of TNYL and the RAW motif aligns precisely next to the last amino acid of TNYL. […] After several washes, the amount of ephrin-B2-AP bound was quantified using p-nitrophenylphosphate as a substrate. […]

Stable binding of EphB receptors in pull-down (EphB receptors): stably bind EphB receptors
Eph receptor binding selectivity of immobilized biotinylated peptide (Eph receptor Fc proteins): bound selectively to EphB1
Inhibition of ephrin-B2 AP binding to EphB1 (in words) (EphB1): inhibited ephrin binding to EphB1
Sequence: EWLSPNLAPSVR [SEQ ID NO 1]
